The subject of data set [1] is protease (collagenase or trypsin). In words: Inhibition of protease digestion of the soft tissue in dentin (clear zone on opaque agar plates with decalcified dentin powder). Format: biochemical. Conditions: for Clear zone: aqueous solution pH 5.4. How it is done:
The ability to inhibit digestion of the soft tissue in dentin was estimated according to the method described by Yanagida et al [Yanagida et al, Shonishikagaku Zasshi, Vol. 9, page 39 (1971)]. That is, firstly, a certain amount of human decalcified dentin powder was treated with a composition to be tested for certain minutes and then unbonded excess components were removed by dialysis to obtain a sample powder. Then, opaque agar plates were prepared by adding the sample powder, and a protease (collagenase or trypsin) was added to the plates. The inhibiting ability was estimated by observing whether a clear zone was formed on the plate or not. The clear zone is formed by dissolution of the powder with the enzyme, and the formation thereof means digestion of the soft tissue in dentin.
Each composition used in the test is an aqueous solution at pH 5.4.

Data set [2] can be described thus: Inhibition of acid decalcification of the hard tissue in dentin (human dentin powder). Conditions: for Inhibition rate of decalcification: solution containing 2% platinum (or saturated) or 2% NaF, pH 5.4. Here is the method: The ability to inhibit decalcification of the hard tissue was also estimated according to the method described by Nishino [Nishino, Osaka University Shigaku Zasshi, Vol. 1, page 1 (1969)]. That is, firstly, a certain amount of human dentin powder was treated with a composition to be tested for certain minutes and then unbonded excess components were removed by washing with water to obtain a sample powder. Then, the sample powder was treated with an acid solution (decalcification) and the amount of calcium in the solution, which was dissolved in the solution by action of the acid, was determined (sample calcium content). Similarly, untreated dentin powder was added to an acid solution and the amount of calcium in the acid solution was determined (control calcium content). From these values, the inhibition rate of decalcification was calculated as follows: [formula]
As a reference, a similar test was done by using an aqueous solution containing 2% of sodium fluoride (pH 5.4).

In the next data set the test system is mice. Kind of data set: LD50 in mice (p.o.). The class given is in vivo. The text has this: Further, the dental composition of the present invention is useful from a viewpont of toxicity since these platinum compounds have lower toxicity than that of NaF.

SMILES strings stand for the structures.

Five molecules from patent US4200626A, “Haloplatinate dental composition for preventing and inhibiting dental caries” (Toyo Seiyaku Kasei Co., Ltd., priority 1978, dated 1980) can be followed below.

Take `[I-].[I-].[I-].[I-].[I-].[I-].[K+].[K+].[Pt+4]` [K2 PtI6, potassium hexaiodoplatinate]: the Clear zone entry in data set [1] (platinum content 0.001%) is listed as “Present”; in data set [1] (platinum content 0.01%), “None”; in data set [1] (platinum content 0.1%) it was “None”.

With `[F-].[Na+]` [NaF, sodium fluoride, reference compound], the “Inhibition rate of decalcification” value is recorded as 40.03% in data set [2] (decalcification time 0.5 hour); 43.29% in data set [2] (decalcification time 1.0 hour); 44.12% in data set [2] (decalcification time 1.5 hour); 44.02% in data set [2] (decalcification time 2.0 hour); 44.33% in data set [2] (decalcification time 3.0 hour); 44.79% in data set [2] (decalcification time 5.0 hour). Further, the results for the “Inhibition rate of decalcification” value in data set [2] (decalcification time 24.0 hour) and in data set [2] (decalcification time 48.0 hour) were 44.93% and 45.45%, respectively. Further, in data set [1] (similar test using sodium fluoride, result in words), the “inhibition of the digestion” value is “no inhibition of the digestion was observed”. In addition, the “LD50 (p.o.)” value in the data set on mice is “about 90 mg per kg of body weight”.

For the molecule `[Cl][Pt-2]([Cl])([Cl])[Cl].[K+].[K+]` [K2 PtCl4, potassium tetrachloroplatinate], the “Inhibition rate of decalcification” value in data set [2] (decalcification time 0.5 hour) amounted to 27.28%; in data set [2] (decalcification time 1.0 hour), 28.11%; in data set [2] (decalcification time 1.5 hour), 30.86%; in data set [2] (decalcification time 2.0 hour), 29.65%; in data set [2] (decalcification time 3.0 hour), 30.22%; in data set [2] (decalcification time 5.0 hour), 31.54%. Besides, the “Inhibition rate of decalcification” value in data set [2] (decalcification time 24.0 hour) stood at 31.69%; in data set [2] (decalcification time 48.0 hour) it was 32.27%. In addition, the Clear zone result was “Present” in data set [1] (platinum content 0.001%), “None” in data set [1] (platinum content 0.01%) and “None” in data set [1] (platinum content 0.1%). Besides, the “LD50 (p.o.)” value in the data set with mice was 97 mg per kg of body weight.

As to `[Cl][Pt-2]([Cl])([Cl])([Cl])([Cl])[Cl].[Na+].[Na+]` [Na2 PtCl6, sodium hexachloroplatinate], the “Inhibition rate of decalcification” value in data set [2] (decalcification time 0.5 hour) is on record as 43.42%; in data set [2] (decalcification time 1.0 hour), 45.23%; in data set [2] (decalcification time 1.5 hour), 45.15%; in data set [2] (decalcification time 2.0 hour) it was 45.36%; in data set [2] (decalcification time 3.0 hour), 47.57%; in data set [2] (decalcification time 5.0 hour), 47.77%. In addition, the “Inhibition rate of decalcification” value in data set [2] (decalcification time 24.0 hour) was found to be 48.00%; in data set [2] (decalcification time 48.0 hour), 48.20%. The “inhibiting effect on decalcification of the hard tissue in dentin” value in data set [2] (result in words, from Table 2) is “superior inhibiting effect to that containing NaF at every decalcification time and the effect thereof is not decreased even though after 48 hours”. Moreover, the figures for the Clear zone entry in data set [1] (platinum content 0.001%), in data set [1] (platinum content 0.01%) and in data set [1] (platinum content 0.1%) were “Present”, “None” and “None”, respectively. Besides, the “LD50 (p.o.)” value with mice is recorded as 130 mg per kg of body weight.

Turning to `[Cl][Pt-2]([Cl])([Cl])([Cl])([Cl])[Cl].[NH4+].[NH4+]` [(NH4)2 PtCl6, ammonium hexachloroplatinate], the Clear zone result in data set [1] (platinum content 0.001%) is “Present”; in data set [1] (platinum content 0.01%) it was “None”; in data set [1] (platinum content 0.1%) it was “None”.
